Experimental data: patent publication US20070254911A1, “Tetrahydro-Pyrazolo[3,4-c]Pyridine Cannabinoid Modulators” (priority 2006, published 2007)
pIC50: −log10 of the molar value.

Tests used:
human CB1 receptor = target: T1, human CB1 receptor (Homo sapiens, UniProt P21554); assay: Binding assay for CB1, radioligand [3H]-CP-55,940 displacement on membranes of transfected SK-N-MC cells; settings: for pIC50: human CB1 in SK-N-MC membranes, [3H]-CP-55,940 0.2 nM, calculated by linear regression, read-out: Cannabinoid CB1 Receptor Binding IC50
T1 construct: expressed in transfected cells; host or cells: SK-N-MC cells, stably transfected with pcDNA3 CB-1 (human); semi-purified membrane pellet
Procedure: (§1) Binding Assay for CB1 or CB2 Agonists or Inverse Agonists
(§2) The human CB1 and CB2 receptors were stably expressed in SK-N-MC cells transfected with pcDNA3 CB-1 (human) or pcDNA3 CB-2 (human). The cells were grown in T-180 cell culture flasks under standard cell culture conditions at 37° C. in a 5% CO2 atmosphere. The cells were harvested by trysinization and homogenized in a homogenization buffer (10 mM Tris, 0.2 mM MgCl2, 5 mM KCl, with protease inhibitors aprotinin, leupeptin, pepstatin A and bacitracin) and centrifuged (2000 g). The supernatant was then centrifuged in 2M sucrose (31,300 g) to produce a semi-purified membrane pellet. The pellet was resuspended in homogenization and stored at −80° C.
(§3) On the day of the assay, the pellet was thawed on ice and diluted in assay buffer (50 mM Tris-HCl, 5 mM MgCl2, 2.5 mM EDTA, 0.5 mg/mL fatty acid free bovine serum albumin, pH 7.5). The diluted membrane pellet was added with buffer, either a test compound or vehicle standard and a the radioligand [H]^3+-CP-55,940 (0.2 nM) to the wells of a 96-well polypropylene plate. Non-specific binding was measured in wells containing WIN 55,212 (10 uM). The plate was covered and incubated for 90 minutes at 30° C. The contents were then aspirated onto a Packard Unifilter GF/C filter bottom plate prewet with 0.5% polyethyleneimine. The wells of the polypropylene plate were rinsed and aspirated seven times with a 0.9% saline-0.5% Tween 20 solution. The Unifilter plate was dried, a scintillation cocktail was added to each well and the counts representing binding were quantitated in a TopCount scintillation counter.
(§4) For compounds tested, an IC50 binding value was obtained from percent inhibition studies in which various test concentrations were used. The binding value (in μM) was calculated by linear regression.
(§5) For compounds without an IC50 binding value, the percent inhibition (%) was obtained at a test concentration of 0.2 μM.

human CB2 receptor = target: T2, human CB2 receptor (Homo sapiens, UniProt P34972); assay: Binding assay for CB2, radioligand [3H]-CP-55,940 displacement on membranes of transfected SK-N-MC cells; settings: test concentration of 0.2 μM; human CB2 in SK-N-MC membranes; read-out: Cannabinoid CB2 Receptor Binding Inhibition (%)
T2 construct: expressed in transfected cells; host or cells: SK-N-MC cells, stably transfected with pcDNA3 CB-2 (human); semi-purified membrane pellet
Procedure: as §1, §2, §3, §4, §5

T2 sequence (P34972 whole entry): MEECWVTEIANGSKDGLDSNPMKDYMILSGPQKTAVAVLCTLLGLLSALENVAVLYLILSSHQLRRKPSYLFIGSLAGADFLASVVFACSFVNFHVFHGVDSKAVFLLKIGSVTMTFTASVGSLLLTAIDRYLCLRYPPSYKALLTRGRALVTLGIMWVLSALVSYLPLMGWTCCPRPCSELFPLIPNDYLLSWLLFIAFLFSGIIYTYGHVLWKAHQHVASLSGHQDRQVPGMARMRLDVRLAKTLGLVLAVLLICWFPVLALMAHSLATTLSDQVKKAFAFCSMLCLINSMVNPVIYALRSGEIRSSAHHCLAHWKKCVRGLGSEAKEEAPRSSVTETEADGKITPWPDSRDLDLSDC
T1 sequence (P21554 whole entry): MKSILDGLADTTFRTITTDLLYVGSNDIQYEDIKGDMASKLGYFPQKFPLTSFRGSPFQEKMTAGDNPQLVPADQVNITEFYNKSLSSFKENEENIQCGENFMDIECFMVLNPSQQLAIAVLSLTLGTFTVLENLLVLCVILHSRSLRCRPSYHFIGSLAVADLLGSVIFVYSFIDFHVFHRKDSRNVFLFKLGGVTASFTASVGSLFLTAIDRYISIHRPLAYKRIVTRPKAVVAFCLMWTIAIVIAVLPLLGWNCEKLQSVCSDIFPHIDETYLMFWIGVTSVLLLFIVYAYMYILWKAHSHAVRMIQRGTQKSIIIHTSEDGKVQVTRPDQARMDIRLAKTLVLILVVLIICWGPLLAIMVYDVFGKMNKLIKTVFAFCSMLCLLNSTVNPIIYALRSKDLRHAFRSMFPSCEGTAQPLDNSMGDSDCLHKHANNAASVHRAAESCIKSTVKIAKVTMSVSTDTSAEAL

SMILES | pIC50 (human CB1 receptor) | inhibition at 0.2 µM (human CB2 receptor) | inhibition at 0.2 µM (human CB1 receptor; test concentration of 0.2 μM, for compounds without an IC50 binding value, read-out: Cannabinoid CB1 Receptor Binding percent inhibition)
C[C@@H](NC(=O)c1nn(-c2ccc(Cl)cc2Cl)c2c1CCN(C(=O)OC(C)(C)C)/C2=C/c1ccc(F)cc1)c1ccccc1 [Cpd 1, (7E)-1-(2,4-dichloro-phenyl)-7-(4-fluoro-benzylidene)-3-[(1R)-1-phenyl-ethylcarbamoyl]-1,4,5,7-tetrahydro-pyrazolo[3,4-c]pyridine-6-carboxylic acid tert-butyl ester] | 8.00 | 35% | –
CC(NC(=O)c1nn(-c2ccc(Cl)cc2Cl)c2c1CCN(C(=O)OC(C)(C)C)/C2=C/c1ccc(F)cc1)c1ccccn1 (stereo not shown) [Cpd 2, (7E)-1-(2,4-dichloro-phenyl)-7-(4-fluoro-benzylidene)-3-(1-pyridin-2-yl-ethylcarbamoyl)-1,4,5,7-tetrahydro-pyrazolo[3,4-c]pyridine-6-carboxylic acid tert-butyl ester] | 7.32 | 13% | –
CC(C)(C)OC(=O)N1CCc2c(C(=O)NN3CCCCC3)nn(-c3ccc(Cl)cc3Cl)c2/C1=C\c1ccc(F)cc1 [Cpd 3, (7E)-1-(2,4-dichloro-phenyl)-7-(4-fluoro-benzylidene)-3-(piperidin-1-ylcarbamoyl)-1,4,5,7-tetrahydro-pyrazolo[3,4-c]pyridine-6-carboxylic acid tert-butyl ester] | 7.92 | 13% | –
CC(C)(C)OC(=O)N1CCc2c(C(=O)N3CCCCC3)nn(-c3ccc(Cl)cc3Cl)c2/C1=C\c1ccc(F)cc1 [Cpd 4, (7E)-1-(2,4-dichloro-phenyl)-7-(4-fluoro-benzylidene)-3-(piperidine-1-carbonyl)-1,4,5,7-tetrahydro-pyrazolo[3,4-c]pyridine-6-carboxylic acid tert-butyl ester] | – | 18% | 39%
COC(=O)N1CCc2c(C(=O)NC(C)c3ccccn3)nn(-c3ccc(Cl)cc3Cl)c2/C1=C\c1ccc(F)cc1 (stereo not shown) [Cpd 5, (7E)-1-(2,4-dichloro-phenyl)-7-(4-fluoro-benzylidene)-3-(1-pyridin-2-yl-ethylcarbamoyl)-1,4,5,7-tetrahydro-pyrazolo[3,4-c]pyridine-6-carboxylic acid methyl ester] | 7.48 | 17% | –
